Experimental data from PubChem BioAssay (NCI).
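All cell lines were grown in 96-well plates and treated with compound for 48 hours. TGI marks complete inhibition of growth.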 Where a SMILES comes first, the peptide text is derived from it. [ ]: non-standard residue; d: D form. The star is where a group is joined. Phe(4-NO2) = N[CH](Cc1ccc([N+](=O)[O-])cc1)C(=O)O; Boc = CC(C)(C)OC(=O)*

Columns and labels:
Experiment in all cases: inhibition of tumour cell growth, NCI panel, 48 h
NCI-H226 lung = system: NCI-H226 lung
U251 CNS = system: U251 CNS
KM12 colon = system: KM12 colon
SF-539 CNS = system: SF-539 CNS
SF-295 CNS = system: SF-295 CNS
HCT-15 colon = system: HCT-15 colon
HT29 colon = system: HT29 colon
OVCAR-8 ovarian = system: OVCAR-8 ovarian
HCT-116 colon = system: HCT-116 colon
PC-3 prostate = system: PC-3 prostate

SMILES	TGI (NCI-H226 lung) [µM]	TGI (U251 CNS) [µM]	TGI (KM12 colon) [µM]	TGI (SF-539 CNS) [µM]	TGI (SF-295 CNS) [µM]	TGI (HCT-15 colon) [µM]	TGI (HT29 colon) [µM]	TGI (OVCAR-8 ovarian) [µM]	TGI (HCT-116 colon) [µM]	TGI (PC-3 prostate) [µM]
O=C(NNC(=S)NC1CCCCC1)c1csc(NC(=S)NC2CCCCC2)n1	> 100	20.2	87.6	15.6	19.7	14.5	> 100	15	16.5	24.9
CCOC(=O)NC(Nc1ccc(C(=O)OCC)cc1)(C(F)(F)F)C(F)(F)F	> 100	> 100	> 100	> 100	> 100	> 100	> 100	> 100	> 100	> 100
COc1cc(/C=C/C(=O)C2(C(=O)/C=C/c3cc(OC)c(OC)c(OC)c3)CCCCC2)cc(OC)c1OC	> 100	> 100	75.9	47.8	89	> 100	> 100	65.2	> 100	> 100
COc1ccc(C(=O)/C=C/c2cc(O)c(O)c(F)c2F)c(OC)c1	56.6	32.1	33.5	65.3	> 100	36.6	> 100	> 100	27.2	40.6
COc1cc(CNNC(N)=S)cc(OC)c1OC	> 100	> 100	> 100	> 100	> 100	> 100	> 100	> 100	> 100	> 100
O=C1Oc2cc(O)cc(/C=C/c3ccc(O)cc3)c2[C@@]12c1c(O)cc(O)cc1OC2c1cccc(O)c1 (stereo not given in full)	93.2	> 100	> 100	> 100	88.1	> 100	65	> 100	> 100	> 100
CC(=O)OCC1OC(n2c(-c3ccc(C)cc3)cc(-c3ccccc3)c(C#N)c2=S)C(OC(C)=O)C(OC(C)=O)C1OC(C)=O (stereo not given)	> 100	> 100	> 100	> 100	> 100	> 100	> 100	> 100	> 100	> 100
COC(=O)c1ccccc1C1CN=NC12Cc1cc(C)ccc1C2=O (stereo not given)	> 100	> 100	> 100	> 100	> 100	> 100	> 100	> 100	> 100	> 100
Nn1c(Cc2ccc([N+](=O)[O-])cc2)n[nH]c1=O	> 100	> 100	> 100	> 100	> 100	> 100	> 100	> 100	> 100	> 100
N[C@H]1CCCC[C@@H]1N1C(=O)c2ccccc2C1(O)c1ccc(Cl)cc1 (stereo not given in full)	31.3	26.6	9.75	25	30.9	26.7	15.6	32.4	21.9	24.4
Cc1nc2c(=O)n(C)ncc2[nH]1	> 100	> 100	> 100	> 100	> 100	> 100	> 100	> 100	> 100	> 100
CCCCCCCCCCCCCCCCCCN(C)CC(COP(=O)([O-])OCC[N+](C)(C)C)OC (stereo not given)	42.4	10.1	7.71	40.3	23.9	23.5	15	44.8	43.3	32.9
Cc1ccc(S(=O)(=O)NNCNC(=O)c2ccccc2)cc1	> 100	> 100	> 100	> 100	> 100	> 100	> 100	> 100	> 100	> 100
CCC(C#N)NCc1cccc(CNC(C#N)CC)c1 (stereo not given)	> 100	> 100	> 100	> 100	33.7	> 100	> 100	> 100	> 100	> 100
NC(=S)N/N=C\c1nccc2ccccc12	0.54	> 58.6	> 100	0.455	0.781	> 100	30.9	0.925	> 59.4	> 100
O=[N+]([O-])c1ccc(N/N=C/c2ccc(OCCCCCCCCCCCO)cc2)c([N+](=O)[O-])c1	37.3	10.7	7.84	4.22	9.6	> 100	> 100	9.86	> 43.7	14.7
O=C1CSC(c2cccc([N+](=O)[O-])c2)N1c1ccc(-n2c(-c3ccccc3)nc3ccccc3c2=O)cc1 (stereo not given)	> 100	> 100	> 100	> 100	> 100	> 100	> 100	> 100	> 100	> 100
CC(C)/C(Cl)=N\OC(=O)Nc1cccc(Cl)c1	38.9	34.4	31.6	36.8	> 58.9	31.3	35.1	29.4	36.2	29.7
Cc1cc(=O)oc2c(CNC(Cc3ccccc3)C(=O)O)c(O)ccc12 (stereo not given)	> 100	> 100	> 100	> 100	> 100	> 100	> 100	> 100	> 100	> 100
CC1=C(C(=O)Nc2ccccc2)C2(CCCCC2)C(C#N)=C(SCC(=O)Nc2ccc(Br)cc2)N1	23	15.3	> 26	32.9	28.9	20.2	8.53	34.9	8.28	7.96
CO/N=C(\C)CCC#Cc1ccccc1C(=O)OC	> 10	> 10	> 10	> 10	> 10	> 10	> 10	> 10	> 10	> 10
CNC(=O)CCC(NC(=O)OC(C)(C)C)C(=O)NC(Cc1ccc([N+](=O)[O-])cc1)C(=O)NCC(=O)NC (stereo not given) (Boc-Glu(NHMe)-[Phe(4-NO2)]-Gly-NHMe; configuration not given here)	> 100	> 100	> 100	> 100	> 100	> 100	> 100	> 100	> 100	> 100
CC(C)NC(=O)CN1CCN(c2c(O)c3c(c(O)c2Cl)C(=O)C=CC3=O)CC1	41.5	10.3	18.4	3.66	19.7	3.19	2.58	3.81	2.61	4.75
Cn1c(-c2cccc([N+](=O)[O-])c2)[n+](C)c2ccccc21	> 100	> 100	> 100	> 100	> 100	> 100	> 100	> 100	> 100	> 100
CCOC(=O)C(SCCO)C(C(=O)OCC)n1ccc(=O)[nH]c1=O (stereo not given)	> 61.2	82.9	> 87.4	> 71.6	> 100	> 57.5	83.3	> 57.4	> 57.4	> 100
